How the values were obtained:
Experiment in all cases: relative viability (nuclei count vs DMSO), 5 days (fraction); higher = more cells survive
Tipifarnib + Tozasertib = compound: Cn1cncc1[C@@](N)(c1ccc(Cl)cc1)c1ccc2c(c1)c(-c1cccc(Cl)c1)cc(=O)n2C [Tipifarnib] + Cc1cc(Nc2cc(N3CCN(C)CC3)nc(Sc3ccc(NC(=O)C4CC4)cc3)n2)n[nH]1 [Tozasertib] (partner 0.1 µM)
Summary of the method: (§1)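 Five library-drug doses in √10 steps were combined with a fixed anchor-drug dose, or a single drug was given alone, by pin tool to lung cancer cell lines in 1536-well plates the day after seeding. Nuclei were stained and counted after 5 days. Relative viability is the nuclei count in treated wells over that in vehicle wells, taken as the median of duplicate plates.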

Tipifarnib + Foretinib = compound: Cn1cncc1[C@@](N)(c1ccc(Cl)cc1)c1ccc2c(c1)c(-c1cccc(Cl)c1)cc(=O)n2C [Tipifarnib] + COc1cc2c(Oc3ccc(NC(=O)C4(C(=O)Nc5ccc(F)cc5)CC4)cc3F)ccnc2cc1OCCCN1CCOCC1 [Foretinib] (partner 0.25 µM)
Summary of the method: as §1

Tipifarnib + AZD7762 = compound: Cn1cncc1[C@@](N)(c1ccc(Cl)cc1)c1ccc2c(c1)c(-c1cccc(Cl)c1)cc(=O)n2C [Tipifarnib] + NC(=O)Nc1cc(-c2cccc(F)c2)sc1C(=O)N[C@H]1CCCNC1 [AZD7762] (partner 0.2 µM)
Summary of the method: as §1

Tipifarnib + Luminespib = compound: Cn1cncc1[C@@](N)(c1ccc(Cl)cc1)c1ccc2c(c1)c(-c1cccc(Cl)c1)cc(=O)n2C [Tipifarnib] + CCNC(=O)c1noc(-c2cc(C(C)C)c(O)cc2O)c1-c1ccc(CN2CCOCC2)cc1 [Luminespib] (partner 0.01 µM)
Summary of the method: as §1

Cell Line	relative viability (Tipifarnib + Tozasertib; first compound 0.01 µM)	relative viability (Tipifarnib + Tozasertib; first compound 0.03162 µM)	relative viability (Tipifarnib + Tozasertib; first compound 0.1 µM)	relative viability (Tipifarnib + Tozasertib; first compound 0.3162 µM)	relative viability (Tipifarnib + Tozasertib; first compound 1 µM)	relative viability (Tipifarnib + Foretinib; first compound 0.01 µM)	relative viability (Tipifarnib + Foretinib; first compound 0.03162 µM)	relative viability (Tipifarnib + Foretinib; first compound 0.1 µM)	relative viability (Tipifarnib + Foretinib; first compound 0.3162 µM)	relative viability (Tipifarnib + Foretinib; first compound 1 µM)	relative viability (Tipifarnib + AZD7762; first compound 0.01 µM)	relative viability (Tipifarnib + AZD7762; first compound 0.03162 µM)	relative viability (Tipifarnib + AZD7762; first compound 0.1 µM)	relative viability (Tipifarnib + AZD7762; first compound 0.3162 µM)	relative viability (Tipifarnib + AZD7762; first compound 1 µM)	relative viability (Tipifarnib + Luminespib; first compound 0.01 µM)	relative viability (Tipifarnib + Luminespib; first compound 0.03162 µM)	relative viability (Tipifarnib + Luminespib; first compound 0.1 µM)	relative viability (Tipifarnib + Luminespib; first compound 0.3162 µM)	relative viability (Tipifarnib + Luminespib; first compound 1 µM)
NCI-H1793	0.286	0.284	0.248	0.247	0.265	0.626	0.577	0.616	0.44	0.411	0.605	0.426	0.379	0.302	0.2	0.23	0.173	0.196	0.134	0.138
NCI-H1915	0.358	0.326	0.293	0.26	0.287	1.01	0.816	0.606	0.593	0.577	0.643	0.583	0.398	0.332	0.319	0.681	0.638	0.48	0.44	0.428
NCI-H1944	0.257	0.256	0.236	0.25	0.236	0.842	0.803	0.561	0.472	0.459	0.515	0.435	0.295	0.299	0.306	0.641	0.657	0.363	0.372	0.393
NCI-H1975	0.853	0.695	0.682	0.386	0.374	0.936	0.967	0.939	0.604	0.568	0.89	0.9	0.688	0.623	0.616	0.235	0.282	0.163	0.172	0.106
NCI-H1993	0.444	0.481	0.553	0.521	0.481	0.832	0.716	0.589	0.605	0.548	0.765	0.591	0.571	0.437	0.484	0.697	0.644	0.57	0.504	0.481
NCI-H2085	0.723	0.663	0.468	0.437	0.617	0.853	0.6	0.493	0.497	0.589	0.979	0.73	0.67	0.478	0.552	0.406	0.317	0.34	0.295	0.34
NCI-H2087	0.245	0.164	0.164	0.132	0.132	0.999	0.371	0.333	0.292	0.3	0.99	0.48	0.249	0.241	0.395	0.185	0.154	0.165	0.141	0.152
NCI-H2126	0.858	0.697	0.673	0.603	0.501	1.06	1.55	1.1	1.12	1.12	1.01	1	0.991	0.962	0.716	0.982	0.947	0.7	0.876	0.723

— the supplement of paper PMC10307832
